From publication PMC5356311, “Experimental recreation of the evolution of lignin-degrading enzymes from the Jurassic to date” (Biotechnology for Biofuels, 2017)
Read-outs that look alike come from different tables or passages of the source. One block for each molecule: values may come before it.

Key:
[1] = system: ALiP; assay: steady-state kinetics, spectrophotometric ([…] nm); format: biochemical, ancestral sequence (Polyporales, reconstructed); conditions: 0.2 mM H2O2, 0.1 M tartrate, pH 3, 25 °C; exposed Trp site
[2] = system: AVP; assay: steady-state kinetics, spectrophotometric ([…] nm); format: biochemical, ancestral sequence (Polyporales, reconstructed); conditions: 0.4 mM H2O2, 0.1 M tartrate, pH 3, 25 °C; exposed Trp site
[3] = system: AVP; assay: steady-state kinetics, spectrophotometric ([…] nm); format: biochemical, ancestral sequence (Polyporales, reconstructed); conditions: 0.4 mM H2O2, 0.1 M tartrate, pH 3.5, 25 °C; exposed Trp site
[4] = system: ALiP; assay: steady-state kinetics, spectrophotometric ([…] nm); format: biochemical, ancestral sequence (Polyporales, reconstructed); conditions: 0.2 mM H2O2, 0.1 M tartrate, pH 3.0, 25 °C; exposed Trp site
[5] = system: AVP; assay: steady-state kinetics, spectrophotometric ([…] nm); format: biochemical, ancestral sequence (Polyporales, reconstructed); conditions: 0.4 mM H2O2, 0.1 M tartrate, pH 3.5, 25 °C; biphasic kinetics, high efficiency site (exposed Trp)
[6] = system: CaPo-tris; conditions: saturating H2O2, 0.1 M tartrate, 25 °C; low efficiency site (heme channel)
[7] = system: CaCD; conditions: read-out: CaCD; 0.4 mM H2O2, 0.1 M tartrate, pH 3.5, 25 °C; low efficiency site (heme channel)
[8] = system: ALiP; conditions: read-out: ALiP; 0.2 mM H2O2, 0.1 M tartrate, pH 3.5, 25 °C; high efficiency site (exposed Trp)
[9] = system: CaPo-bis; conditions: saturating H2O2, 0.1 M tartrate, 25 °C; low efficiency site (heme channel)
[10] = system: CaCD; assay: steady-state kinetics, spectrophotometric ([…] nm); format: biochemical, ancestral sequence (Polyporales, reconstructed); conditions: 0.4 mM H2O2, 0.1 M tartrate, pH 3.0, 25 °C; low efficiency site (heme channel)
[11] = system: ALiP; assay: steady-state kinetics, spectrophotometric ([…] nm); format: biochemical, ancestral sequence (Polyporales, reconstructed); conditions: 0.2 mM H2O2, 0.1 M tartrate, pH 3.0, 25 °C; high efficiency site (exposed Trp)
[12] = system: CaPo; assay: steady-state kinetics, spectrophotometric ([…] nm); format: biochemical, ancestral sequence (Polyporales, reconstructed); conditions: 0.4 mM H2O2, 0.1 M tartrate, pH 2, 25 °C; low efficiency site (heme channel)
[13] = system: AVP; assay: steady-state kinetics, spectrophotometric ([…] nm); format: biochemical, ancestral sequence (Polyporales, reconstructed); conditions: 0.4 mM H2O2, 0.1 M tartrate, pH 3.0, 25 °C; biphasic kinetics, high efficiency site (exposed Trp)
[14] = substrate: COc1ccc(CO)cc1OC; assay: purified protein; format: biochemical, Phanerodontia chrysosporium; conditions: 0.1 mM H2O2, 0.1 M tartrate, pH 3.0, 25 °C, exposed Trp site
[15] = substrate: COc1cccc(OC)c1O; assay: purified protein; format: biochemical, Phanerodontia chrysosporium; conditions: 0.1 mM H2O2, 0.1 M tartrate, pH 3.0, 25 °C, high efficiency site (exposed Trp)
[16] = substrate: CCn1c(=NN=c2sc3cc(S(=O)(=O)O)ccc3n2CC)sc2cc(S(=O)(=O)O)ccc21; assay: purified protein; format: biochemical, Phanerodontia chrysosporium; conditions: 0.1 mM H2O2, 0.1 M tartrate, pH 3.5, 25 °C, high efficiency site (exposed Trp)

Molecule: COc1ccc(CO)cc1OC [VA]
Km [3]: 299 ± 104 µM | Km [4]: 773 ± 155 µM

Molecule: COc1cccc(OC)c1O [DMP]
Km [10]: 66800 µM | Km [11]: 34 ± 5.4 µM | Km [12]: 32900 µM | Km [13]: 5.3 ± 1.1 µM

B1: LiPH8 (Phanerodontia chrysosporium) (protein)
chain: ATCSNGKTVGDASCCAWFDVLDDIQQNLFHGGQCGAEAHESIRLVFHDSIAISPAMEAQGKFGGGGADGSIMIFDDIETAFHPNIGLDEIVKLQKPFVQKHGVTPGDFIAFAGRVALSNCPGAPQMNFFTGRAPATQPAPDGLVPEPFHTVDQIINRVNDAGEFDELELVWMLSAHSVAAVNDVDPTVQGLPFDSTPGIFDSQFFVETQLRGTAFPGSGGNQGEVESPLPGEIRIQSDHTIARDSRTACEWQSFVNNQSKLVDDFQFIFLALTQLGQDPNAMTDCSDVIPQSKPIPGNLPFSFFPAGKTIKDVEQACAETPFPTLTTLPGPETSVQRIPPPPGA
Km [14]: 79.3 ± 18 µM | kcat [14]: 16.2 ± 0.8 s⁻¹ | kcat/Km [14]: 205000 ± 4000 M⁻¹ s⁻¹ | Km [15]: 4.0 ± 0.07 µM | Km [16]: 21.3 ± 2.3 µM | kcat [16]: 6.5 ± 0.2 s⁻¹ | kcat/Km [16]: 300000 ± 25000 M⁻¹ s⁻¹

Continued, values first:

Km [1]: 12.6 ± 3.6 µM | Km [2]: 4.8 ± 0.8 µM
Molecule: Nc1c(N=Nc2ccc(S(=O)(=O)CCOS(=O)(=O)O)cc2)c(S(=O)(=O)O)cc2cc(S(=O)(=O)O)c(N=Nc3ccc(S(=O)(=O)CCOS(=O)(=O)O)cc3)c(O)c12 [RB5]

Km [5]: 5.4 ± 0.7 µM | Km [6]: 807 ± 104 µM | Km [7]: 1280 ± 350 µM | Km [8]: 13.7 ± 3.5 µM | Km [9]: 1390 ± 345 µM
Molecule: CCn1c(=NN=c2sc3cc(S(=O)(=O)O)ccc3n2CC)sc2cc(S(=O)(=O)O)ccc21 [ABTS]
